The source of these data is paper PMC8161536, “Structure-tuned membrane active Ir-complexed oligoarginine overcomes cancer cell drug resistance and triggers immune responses in mice” (Chemical Science, 2020).

Format in all cases: cell-based
Assay [1] concerns A549/DDP. Kind of assay: MTT cytotoxicity, cisplatin-resistant A549/DDP. The following applies: Ir-cR8 24 h, cisplatin 48 h, unit inferred, test concentrations in μM, read-out: Antiproliferative activity (IC50) A549/DDP. As for the experimental part: (Waters Corp., USA) The gradient mobile phase consisted of acetonitrile (A) and H2O (B) both containing […] A typical 15 min sample run consisted of 2 min of 20% solvent A and 80% solvent B followed by an increment of solvent A up to 23% for the remaining 2 min. Then the proportion of solvent A was increased to 45% in the following 8 min and decreased to 20% in the last 3 min. The analytes were monitored by a photo diode array (PDA) detector set at 220 nm and 254 nm and the flow rate was set to 0.3 mL min-1. The separated metallopeptides were collected to lyophilized and quantified by ICP-MASS, then for MTT assay. Circular dichroism assay of Ir-peptides […] The collected Ir- peptides were lyophilized and quantified by ICP-MASS. The Ir-peptides, isomers, mixture of two isomers were diluted to same concentration for circular dichroism test. (Chirascan-plus, Applied photophysics) LogP assay Water and octanol (1:1, v/v) were saturated for 24 h at room temperature and separated as aqueous phase and oil phase. Ir- […] […] CCK-8 of 20 μL was added in each well and incubated for 4 h, then the absorbance at 450 nm of each well was obtained by microplate spectrophotometer to calculate the cell viability. […] The absorbance […]

Assay [2] relates to HL60/Ara-C. Description: CCK-8 cytotoxicity, cytarabine-resistant HL60/Ara-C. The note with it: Homo sapiens, HL-60; read-out: Antiproliferative activity (IC50) HL60/Ara-C.
In assay [3] the test system is HL60. Description: CCK-8 cytotoxicity, HL60. The following applies: Homo sapiens, HL-60; read-out: Antiproliferative activity (IC50) HL60.
For assay [4], the system named is HL60/ADR. Description: CCK-8 cytotoxicity, doxorubicin-resistant HL60/ADR. The note with it: Homo sapiens, read-out: Antiproliferative activity (IC50) HL60/ADR.
For assay [5], the system named is A549/Taxol. Description: MTT cytotoxicity, paclitaxel-resistant A549/Taxol. The note with it: read-out: Antiproliferative activity (IC50) A549/Taxol. As for the experimental part:
mm × 2.1 mm column. (Waters Corp., USA) The gradient mobile phase consisted of acetonitrile (A) and H2O (B) both containing
0.1% trifluoroacetic acid. A typical 15 min sample run consisted of 2 min of 20% solvent A and 80% solvent B followed by an
increment of solvent A up to 23% for the remaining 2 min. Then the proportion of solvent A was increased to 45% in the
following 8 min and decreased to 20% in the last 3 min. The analytes were monitored by a photo diode array (PDA) detector
set at 220 nm and 254 nm and the flow rate was set to 0.3 mL min-1. The separated metallopeptides were collected to
lyophilized and quantified by ICP-MASS, then for MTT assay.
Circular dichroism assay of Ir-peptides
peptides were lyophilized and quantified by ICP-MASS. The Ir-peptides, isomers, mixture of two isomers were diluted to same
concentration for circular dichroism test. (Chirascan-plus, Applied photophysics)
Water and octanol (1:1, v/v) were saturated for 24 h at room temperature and separated as aqueous phase and oil phase. Ir- […]
the standard curves by fluorescence spectrophotometer, Ex Slit:5.0 nm, Em Slit:5.0 nm, 650 V. Then the aqueous phase’s
fluorescence intensities in samples containing both oil and aqueous phases were scanned, the concentration in aqueous phase
of each Ir-peptide was calculated by standard curve, the Ir-peptide’s initial concentration in aqueous phase minus 24 hour’s […]

Assay [6] has as its system HeLa cells. The following applies: 24 h. As for the experimental part: (Waters Corp., USA) The gradient mobile phase consisted of acetonitrile (A) and H2O (B) both containing […] A typical 15 min sample run consisted of 2 min of 20% solvent A and 80% solvent B followed by an increment of solvent A up to 23% for the remaining 2 min. Then the proportion of solvent A was increased to 45% in the following 8 min and decreased to 20% in the last 3 min. The analytes were monitored by a photo diode array (PDA) detector set at 220 nm and 254 nm and the flow rate was set to 0.3 mL min-1. The separated metallopeptides were collected to lyophilized and quantified by ICP-MASS, then for MTT assay. Circular dichroism assay of Ir-peptides […] The collected Ir- peptides were lyophilized and quantified by ICP-MASS. The Ir-peptides, isomers, mixture of two isomers were diluted to same concentration for circular dichroism test. (Chirascan-plus, Applied photophysics) LogP assay Water and octanol (1:1, v/v) were saturated for 24 h at room temperature and separated as aqueous phase and oil phase. Ir- […] Samples were stirred for 24 h at room […] the standard curves by fluorescence spectrophotometer, Ex Slit:5.0 nm, Em Slit:5.0 nm, 650 V. Then the aqueous phase's fluorescence intensities in samples containing both oil and aqueous phases were scanned, the concentration in aqueous phase of each Ir-peptide was calculated by standard curve, the Ir-peptide's initial concentration in aqueous phase minus 24 hour's concentration in aqueous phase to obtain the 24 hour's concentration in oil phase, logP=log(c oil/caqueous). Cell culture […] cells were incubated in RPMI 1640 medium with 10% fetal bovine serum, 37 °C, 5%CO2. […] Pharmacology Department, College of Pharmaceutical Sciences, Soochow University. […] obtained from Institute of Hematology and Blood Diseases Hospital, Chinese Academy of Medical Sciences & Peking Union Medical College. Induction of cisplatin resistant A549/DDP cells […] entering the logarithmic growth period. Then the medium was replaced by DMEM medium containing 10% fetal bovine serum and 0.125 μM cisplatin. The cells were incubated with cisplatin for 24 h and the medium was removed and no cisplatin DMEM […] The induction followed this […] The concentration of cisplatin was twice as much as before in each induction. Then the cells were incubated with DMEM containing 10% fetal bovine serum and 4 μM cisplatin for two months and medium containing cisplatin was replaced by no-cisplatin medium two weeks before experiment. Cytotoxicity HeLa cells were cultured in 96-well microplates, 8*10^3 cells per well overnight. […] CCK-8 of 20 μL was added in each well and incubated for 4 h, then the absorbance at 450 nm of each well was obtained by microplate spectrophotometer to calculate the cell viability. […] The absorbance […]

As to `N.N.[Cl][Pt][Cl]` [Cisplatin, cisplatin], the IC50 in assay [1] was over 128 µM.

Turning to `Nc1ccn([C@@H]2O[C@H](CO)[C@@H](O)[C@@H]2O)c(=O)n1` [Cytarabine, cytarabine], the figures for the IC50 in assay [2] and in assay [3] were over 128 µM and 70 ± 3 nM, respectively.

`COc1cccc2c1C(=O)c1c(O)c3c(c(O)c1C2=O)C[C@@](O)(C(=O)CO)C[C@@H]3O[C@H]1C[C@H](N)[C@H](O)[C@H](C)O1` [Doxorubicin, doxorubicin]: the IC50 in assay [3] stood at 130 ± 60 nM; in assay [4], 8.3 ± 0.2 µM.

In the case of `CC(=O)O[C@H]1C(=O)[C@@]2(C)[C@H]([C@H](OC(=O)c3ccccc3)[C@]3(O)C[C@H](OC(=O)[C@H](O)[C@@H](NC(=O)c4ccccc4)c4ccccc4)C(C)=C1C3(C)C)[C@]1(OC(C)=O)CO[C@@H]1C[C@@H]2O` [Paclitaxel, paclitaxel], in assay [5], the IC50 was 25.8 ± 0.5 µM.

For the compound Ac-HHRRR-NH2 [aR3], the IC50 in assay [6] was over 100 µM.

On to Ac-HHRRRR-NH2 [aR4], for which the IC50 in assay [6] was over 100 µM.

In turn, Ac-HRRRH-NH2 [cR3] came in with an IC50 in assay [6] of over 100 µM.

As for Ac-HRRRRH-NH2 [cR4], the IC50 in assay [6] was over 100 µM.
